We go through 25 molecules from patent US8669249B2, “Poly (ADP-ribose) polymerase (PARP) inhibitors” (Takeda Pharmaceutical Company Limited, priority 2009, dated 2014).

The target of one experiment is T1, PARP (Homo sapiens, UniProt P09874).
T1 construct: purchased Trevigen 4684-096-K HT (kit); 4684-096-01 (PARP enzyme)
In words: PARP ELISA (ELISA-based colorimetric PARP/Apoptosis Assay kit, Trevigen). In kind it is biochemical. As to conditions: pIC50=-log10 IC50, IC50 in mol/L; inhibition of PARP catalytic activity. In outline:
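Quenched after 10 min catalysis by aspiration and four PBS/0.1% Triton X-100 washes. Poly(ADP-ribose) detected with mouse anti-PAR monoclonal antibody, goat anti-mouse IgG-HRP and HRP substrate; colorimetric signal proportional to PARP catalytic activity.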
A general note: ELISA stands for enzyme-linked immunosorbent assay.

Experiment [1] addresses T2, catalytic domain of Human PARP (Homo sapiens, UniProt P09874).
T2 construct: The catalytic domain of Human PARP was cloned and prepared; made in house
As to the kind of experiment: Biacore surface plasmon resonance affinity assay. The settings on record: pKD=-log10 KD, KD in mol/L; Biacore T100, 25° C.; read-out: pKD (converted). Format: binding. In short, it runs like this:
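Human PARP catalytic domain amine-coupled to CM5 chip; compounds run as 2-fold series in HBS-P with 1% DMSO, 0.5 mM TCEP, 5 mM MgCl2.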
In general terms: Surface plasmon resonance follows binding to a sensor surface in real time, without labels.

For a further experiment, the system named is Jurkat cell line. In words: PARP cellular chemopotentiation assay (MTS, with/without TMZ). In kind it is cell-based. As to conditions: Chemopotentiation factor: ratio of EC50 values of Jurkat cells co-treated without and with 100 μM TMZ; 96 hours. In outline: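 Jurkat cells, 10,000/well, pre-cultured 24 h, then treated 96 h with serial compound dilutions (0.5% DMSO) with or without 100 μM TMZ. Viability by MTS conversion (OD490), normalized to DMSO controls; EC50 from curve fits, PF50 = EC50 without TMZ / EC50 with TMZ.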

SMILES strings stand for the structures. Some results are limits rather than exact numbers.

T1 sequence (P09874 whole entry): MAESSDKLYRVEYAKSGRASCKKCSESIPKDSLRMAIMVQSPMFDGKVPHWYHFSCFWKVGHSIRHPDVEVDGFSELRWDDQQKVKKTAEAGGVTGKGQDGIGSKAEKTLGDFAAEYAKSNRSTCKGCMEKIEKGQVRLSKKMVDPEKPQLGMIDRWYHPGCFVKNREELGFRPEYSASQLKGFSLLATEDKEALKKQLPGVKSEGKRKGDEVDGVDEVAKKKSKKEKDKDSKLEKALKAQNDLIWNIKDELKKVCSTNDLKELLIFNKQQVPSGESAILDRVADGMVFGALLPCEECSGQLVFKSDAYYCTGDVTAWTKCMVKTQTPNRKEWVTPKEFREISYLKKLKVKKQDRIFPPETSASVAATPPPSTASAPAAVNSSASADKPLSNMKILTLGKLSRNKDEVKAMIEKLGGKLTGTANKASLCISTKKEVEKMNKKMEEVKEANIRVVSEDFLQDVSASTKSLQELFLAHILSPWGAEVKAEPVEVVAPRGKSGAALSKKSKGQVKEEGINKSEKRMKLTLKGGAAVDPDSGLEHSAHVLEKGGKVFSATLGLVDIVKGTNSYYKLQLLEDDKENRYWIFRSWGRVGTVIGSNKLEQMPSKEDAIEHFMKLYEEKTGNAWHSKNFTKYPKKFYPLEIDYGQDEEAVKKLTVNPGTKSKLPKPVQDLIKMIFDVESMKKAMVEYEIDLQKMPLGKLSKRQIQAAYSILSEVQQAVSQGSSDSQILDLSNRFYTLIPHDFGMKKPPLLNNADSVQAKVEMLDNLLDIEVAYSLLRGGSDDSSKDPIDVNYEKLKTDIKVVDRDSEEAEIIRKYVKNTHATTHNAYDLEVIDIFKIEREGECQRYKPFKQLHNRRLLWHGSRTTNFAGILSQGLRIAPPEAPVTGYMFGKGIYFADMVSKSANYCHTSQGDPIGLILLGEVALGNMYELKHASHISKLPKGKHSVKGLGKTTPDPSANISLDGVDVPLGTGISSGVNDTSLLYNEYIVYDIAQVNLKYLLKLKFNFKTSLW
T2 sequence (P09874 788-1014 limits assumed): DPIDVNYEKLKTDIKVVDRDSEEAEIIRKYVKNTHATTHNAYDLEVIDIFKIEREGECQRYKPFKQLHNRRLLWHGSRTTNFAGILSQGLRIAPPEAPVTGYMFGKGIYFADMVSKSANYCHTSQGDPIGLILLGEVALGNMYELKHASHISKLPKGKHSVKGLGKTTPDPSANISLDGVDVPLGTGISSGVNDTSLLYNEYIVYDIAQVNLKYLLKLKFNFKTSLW

A word on the IC50: it is the concentration that inhibits the measured activity by half. Low values mean inhibition by little substance, high ones a need for much substance. In the case of `CNC(=O)c1ccc(N2CCN(Cc3ccc4c(c3)NC(=O)C(C)O4)CC2)cc1` (centres unmarked) [Compound 223, N-Methyl-4-(4-((2-methyl-3-oxo-3,4-dihydro-2H-benzo[b][1,4]oxazin-6-yl)methyl)piperazin-1-yl)benzamide], the half-maximal inhibitory concentration (IC50) against PARP was not above 0.0316 µM. Further, the Kd in experiment [1] is not above 0.01 µM. In addition, the PF50 result with Jurkat cell line is reported as “≦0.9”.
The corresponding values for `Cc1cc(CN2CCN(c3ccc(C#N)cc3)CC2)cc2c1OC(C)C(=O)N2` (centres unmarked) [Compound 253, 4-(4-((2,8-Dimethyl-3-oxo-3,4-dihydro-2H-benzo[b][1,4]oxazin-6-yl)methyl)piperazin-1-yl)benzonitrile] are not above 0.0316 µM, not above 0.01 µM and 2.0-9.9.
The corresponding values for `CC1Oc2ccc(CN3CCN(c4ccc(Cl)cn4)CC3)cc2NC1=O` (centres unmarked) [Compound 61, 6-((4-(5-Chloropyridin-2-yl)piperazin-1-yl)methyl)-2-methyl-2H-benzo[b][1,4]oxazin-3(4H)-one] are 0.0398 to 0.1 µM, not above 0.01 µM and “≦0.9”.
In the case of `CCNC(=O)c1ccc(N2CCN(Cc3ccc4c(c3)NC(=O)C(C)O4)CC2)cc1` (centres unmarked) [Compound 224, N-Ethyl-4-(4-((2-methyl-3-oxo-3,4-dihydro-2H-benzo[b][1,4]oxazin-6-yl)methyl)piperazin-1-yl)benzamide], at PARP, the concentration for half-maximal inhibition (IC50) is not above 0.0316 µM. Besides, the Kd in experiment [1] is not above 0.01 µM. In the experiment with Jurkat cell line, the PF50 is on record as 2.0-9.9.
Regarding `COC(=O)c1ccc(C2CCN(Cc3ccc4c(c3)NC(=O)C(C)O4)CC2)cc1` (centres unmarked) [Compound 214, Methyl 4-(1-((2-methyl-3-oxo-3,4-dihydro-2H-benzo[b][1,4]oxazin-6-yl)methyl)piperidin-4-yl)benzoate], the 50% inhibitory concentration (IC50) against PARP was 0.0398 to 0.1 µM. Besides, the Kd in experiment [1] is not above 0.01 µM. For the same molecule, the PF50 entry in the experiment with Jurkat cell line is reported as “≦0.9”.
Consider `Cc1cc(CN2CCN(c3ccc(C#N)cn3)CC2)cc2c1OC(C)C(=O)N2` (centres unmarked) [Compound 254, 6-(4-((2,8-Dimethyl-3-oxo-3,4-dihydro-2H-benzo[b][1,4]oxazin-6-yl)methyl)piperazin-1-yl)nicotinonitrile], for which the IC50 against PARP was not above 0.0316 µM. Also, in experiment [1], the Kd was 0.0126 to 0.1 µM. The PF50 in the experiment with Jurkat cell line was 2.0-9.9.
The corresponding values for `CC1Oc2ccc(CN3CCN(c4ccc(C#N)cn4)CC3)cc2NC1=O` (centres unmarked) [Compound 231, 6-(4-((2-Methyl-3-oxo-3,4-dihydro-2H-benzo[b][1,4]oxazin-6-yl)methyl)piperazin-1-yl)nicotinonitrile] are not above 0.0316 µM, not above 0.01 µM and 1.0-1.9.
The molecule `COc1cc(CN2CCN(c3ccc(C(=O)NC(C)C)cc3)CC2)cc2c1OC(C)C(=O)N2` (centres unmarked) [Compound 164, N-Isopropyl-4-(4-((8-methoxy-2-methyl-3-oxo-3,4-dihydro-2H-benzo[b][1,4]oxazin-6-yl)methyl)piperazin-1-yl)benzamide] gave an IC50 at PARP not above 0.0316 µM. Also, the Kd in experiment [1] was less than 0.0316 µM. In the experiment with Jurkat cell line, the PF50 result was “≧10.0”.
In turn, `COC(=O)c1ccc(N2CCN(Cc3ccc4c(c3)NC(=O)C(C)O4)CC2)nc1` (centres unmarked) [Compound 232, Methyl 6-(4-((2-methyl-3-oxo-3,4-dihydro-2H-benzo[b][1,4]oxazin-6-yl)methyl)piperazin-1-yl)nicotinate] had an IC50 against PARP of 0.0398 to 0.1 µM. Further, the Kd in experiment [1] was not above 0.01 µM. The PF50 in the experiment on Jurkat cell line is recorded as 1.0-1.9.
The corresponding values for `CNC(=O)c1ccc(N2CCN(Cc3cc4c(c(OC)c3)OC(C)C(=O)N4)CC2)cc1` (centres unmarked) [Compound 161, 4-(4-((8-Methoxy-2-methyl-3-oxo-3,4-dihydro-2H-benzo[b][1,4]oxazin-6-yl)methyl)piperazin-1-yl)-N-methylbenzamide] are not above 0.0316 µM, less than 0.0316 µM and “≧10.0”.
The corresponding values for `CNC(=O)c1ccc(N2CCN(Cc3cc(F)c4c(c3)NC(=O)C(C)O4)CC2)cc1` (centres unmarked) [Compound 271, 4-(4-((8-Fluoro-2-methyl-3-oxo-3,4-dihydro-2H-benzo[b][1,4]oxazin-6-yl)methyl)piperazin-1-yl)-N-methylbenzamide] are 0.0398 to 0.1 µM, not above 0.01 µM and “≦0.9”.
The corresponding values for `CNC(=O)c1ccc(N2CCN(Cc3ccc4c(c3)NC(=O)C(C)O4)CC2)nc1` (centres unmarked) [Compound 235, N-Methyl-6-(4-((2-methyl-3-oxo-3,4-dihydro-2H-benzo[b][1,4]oxazin-6-yl)methyl)piperazin-1-yl)nicotinamide] are not above 0.0316 µM, not above 0.01 µM and 2.0-9.9.
The molecule `CCNC(=O)c1ccc(N2CCN(Cc3cc4c(c(OC)c3)OC(C)C(=O)N4)CC2)c(C)c1` (centres unmarked) [Compound 363, N-ethyl-4-(4-((8-methoxy-2-methyl-3-oxo-3,4-dihydro-2H-benzo[b][1,4]oxazin-6-yl)methyl)piperazin-1-yl)-3-methylbenzamide] had an IC50 against PARP of 0.0316 µM. Also, the PF50 in the experiment with Jurkat cell line was 6522.
The corresponding values for `CNC(=O)c1ccc(N2CCN(Cc3cc4c(c(-c5ccccc5)c3)OC(C)C(=O)N4)CC2)cc1` (centres unmarked) [Compound 350, N-Methyl-4-(4-((2-methyl-3-oxo-8-phenyl-3,4-dihydro-2H-benzo[b][1,4]oxazin-6-yl)methyl)piperazin-1-yl)benzamide] are more than 0.2 µM and 2.1.
The corresponding values for `Cc1cc(C(=O)NC2CC2)ccc1N1CCN(Cc2cc(C)c3c(c2)NC(=O)C(C)O3)CC1` (centres unmarked) [Compound 386, N-Cyclopropyl-4-(4-((2,8-dimethyl-3-oxo-3,4-dihydro-2H-benzo[b][1,4]oxazin-6-yl)methyl)piperazin-1-yl)-3-methylbenzamide] are 0.0501 µM and more than 5.0.
The corresponding values for `CC1Oc2c(cc(CN3CCN(c4ccc(C(=O)NC5CC5)cc4)CC3)cc2C2CC2)NC1=O` (centres unmarked) [Compound 348, N-Cyclopropyl-4-(4-((8-cyclopropyl-2-methyl-3-oxo-3,4-dihydro-2H-benzo[b][1,4]oxazin-6-yl)methyl)piperazin-1-yl)benzamide] are 0.251 µM and more than 5.
Molecule `CCNC(=O)c1ccc(N2CCN(Cc3ccc4c(c3)NC(=O)C(C)O4)CC2)c(Cl)c1` (centres unmarked) [Compound 371, 3-Chloro-N-ethyl-4-(4-((2-methyl-3-oxo-3,4-dihydro-2H-benzo[b][1,4]oxazin-6-yl)methyl)piperazin-1-yl)benzamide] gave an IC50 against PARP of 0.0158 µM. The PF50 in the experiment with Jurkat cell line is listed as more than 20.
In the case of `CC1Oc2c(cc(CN3CCN(c4ccc(C(=O)NC5CC5)cc4)CC3)cc2-c2ccccc2)NC1=O` (centres unmarked) [Compound 351, N-Cyclopropyl-4-(4-((2-methyl-3-oxo-8-phenyl-3,4-dihydro-2H-benzo[b][1,4]oxazin-6-yl)methyl)piperazin-1-yl)benzamide], the IC50 at PARP was more than 0.2 µM. In the experiment with Jurkat cell line, the PF50 stood at 1.0.
The corresponding values for `CC(=O)c1ccc(N2CCN(Cc3ccc4c(c3)NC(=O)C(C)O4)CC2)cc1` (centres unmarked) [Compound 218, 6-((4-(4-Acetylphenyl)piperazin-1-yl)methyl)-2-methyl-2H-benzo[b][1,4]oxazin-3(4H)-one] are not below 0.126 µM and “≦0.9”.
For the molecule `CNC(=O)c1ccc(N2CCN(Cc3cc4c(c(OC)c3)OCC(=O)N4)CC2)c(C)c1` [Compound 376, 4-(4-((8-Methoxy-3-oxo-3,4-dihydro-2H-benzo[b][1,4]oxazin-6-yl)methyl)piperazin-1-yl)-N,3-dimethylbenzamide], on PARP, the IC50 was 0.0158 µM. Further, the PF50 in the experiment on Jurkat cell line is listed as more than 6.0.
The corresponding values for `Cc1cc(CN2CCN(c3ccc(C(=O)NC4CC4)cc3Cl)CC2)cc2c1OC(C)C(=O)N2` (centres unmarked) [Compound 388, 3-Chloro-N-cyclopropyl-4-(4-((2,8-dimethyl-3-oxo-3,4-dihydro-2H-benzo[b][1,4]oxazin-6-yl)methyl)piperazin-1-yl)benzamide] are 0.0794 µM and 6558.
Molecule `COc1cc(CN2CCN(c3ccc(C(=O)NC4CC4)cc3F)CC2)cc2c1OC(C)C(=O)N2` (centres unmarked) [Compound 372, N-Cyclopropyl-3-fluoro-4-{4-[(8-methoxy-2-methyl-3-oxo-3,4-dihydro-2H-1,4-benzoxazin-6-yl)methyl]piperazin-1-yl}benzamide] had an IC50 against PARP of 0.02 µM. In addition, in the experiment on Jurkat cell line, the PF50 is 1.0.
With `CC1Oc2c(Cc3ccccc3)cc(CN3CCN(c4ccc(C(=O)NC5CC5)cc4)CC3)cc2NC1=O` (centres unmarked) [Compound 354, 4-(4-((8-Benzyl-2-methyl-3-oxo-3,4-dihydro-2H-benzo[b][1,4]oxazin-6-yl)methyl)piperazin-1-yl)-N-cyclopropylbenzamide], the 50% inhibitory concentration (IC50) at PARP is more than 0.2 µM. Besides, the PF50 in the experiment with Jurkat cell line is 1.0.
`CNC(=O)c1ccc(N2CCN(Cc3cc4c(c(OC)c3)OC(C)C(=O)N4)CC2)c(Cl)c1` (centres unmarked) [Compound 366, 3-Chloro-4-(4-((8-methoxy-2-methyl-3-oxo-3,4-dihydro-2H-benzo[b][1,4]oxazin-6-yl)methyl)piperazin-1-yl)-N-methylbenzamide] had a half-inhibitory concentration (IC50) against PARP of 0.0251 µM. The PF50 in the experiment on Jurkat cell line amounted to 4.6.
The corresponding values for `Cc1cc2c(cc1CN1CC=C(c3ccc(Cl)cc3)CC1)NC(=O)C(C)O2` (centres unmarked) [Compound 321, 6-((4-(4-Chlorophenyl)-5,6-dihydropyridin-1(2H)-yl)methyl)-2,7-dimethyl-2H-benzo[b][1,4]oxazin-3(4H)-one] are 0.002 µM and 1.4.
